From ChEMBL document CHEMBL2321785, “Synthesis and SAR study of new thiazole derivatives as vascular adhesion protein-1 (VAP-1) inhibitors for the treatment of diabetic macular edema” (Bioorg Med Chem, 2013)
The source made the active and inactive calls. No cut-off for these calls is given here.

Legend:
[1] = biological target: T1, Amine oxidase [copper-containing] 3 (Homo sapiens, UniProt Q16853); assay: Inhibition of human VAP1 expressed in CHO cells using [14C]-benzylamine as substrate incubated for 30 mins prior to substrate addition measured after 1 hr by scintillation spectrophotometric analysis; type: cell-based
T1 sequence (Q16853 whole entry): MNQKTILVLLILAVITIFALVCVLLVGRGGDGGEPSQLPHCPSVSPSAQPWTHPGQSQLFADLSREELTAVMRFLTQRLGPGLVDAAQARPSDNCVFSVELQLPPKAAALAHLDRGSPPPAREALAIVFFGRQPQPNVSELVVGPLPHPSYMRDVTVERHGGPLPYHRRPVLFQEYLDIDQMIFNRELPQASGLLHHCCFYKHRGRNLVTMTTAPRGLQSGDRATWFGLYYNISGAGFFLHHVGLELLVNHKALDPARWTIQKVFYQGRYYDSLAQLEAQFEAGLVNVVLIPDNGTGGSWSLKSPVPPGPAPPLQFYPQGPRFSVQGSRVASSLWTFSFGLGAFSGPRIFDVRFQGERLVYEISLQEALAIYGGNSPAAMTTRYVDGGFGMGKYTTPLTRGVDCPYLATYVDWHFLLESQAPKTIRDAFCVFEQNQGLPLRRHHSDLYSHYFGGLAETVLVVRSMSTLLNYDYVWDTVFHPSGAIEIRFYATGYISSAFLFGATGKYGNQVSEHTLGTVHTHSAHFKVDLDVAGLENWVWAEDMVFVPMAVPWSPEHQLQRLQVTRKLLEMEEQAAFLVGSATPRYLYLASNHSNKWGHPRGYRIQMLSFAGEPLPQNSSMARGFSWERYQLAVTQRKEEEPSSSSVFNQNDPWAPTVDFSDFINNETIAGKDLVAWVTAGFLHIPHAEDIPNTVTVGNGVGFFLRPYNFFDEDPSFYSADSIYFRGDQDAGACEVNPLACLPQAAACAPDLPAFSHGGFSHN

[2] = biological target: T2, Amine oxidase [copper-containing] 3 (Rattus norvegicus, UniProt O08590); assay: Inhibition of rat VAP1 expressed in CHO cells using [14C]-benzylamine as substrate incubated for 30 mins prior to substrate addition measured after 1 hr by scintillation spectrophotometric analysis; type: cell-based
T2 sequence (O08590 whole entry): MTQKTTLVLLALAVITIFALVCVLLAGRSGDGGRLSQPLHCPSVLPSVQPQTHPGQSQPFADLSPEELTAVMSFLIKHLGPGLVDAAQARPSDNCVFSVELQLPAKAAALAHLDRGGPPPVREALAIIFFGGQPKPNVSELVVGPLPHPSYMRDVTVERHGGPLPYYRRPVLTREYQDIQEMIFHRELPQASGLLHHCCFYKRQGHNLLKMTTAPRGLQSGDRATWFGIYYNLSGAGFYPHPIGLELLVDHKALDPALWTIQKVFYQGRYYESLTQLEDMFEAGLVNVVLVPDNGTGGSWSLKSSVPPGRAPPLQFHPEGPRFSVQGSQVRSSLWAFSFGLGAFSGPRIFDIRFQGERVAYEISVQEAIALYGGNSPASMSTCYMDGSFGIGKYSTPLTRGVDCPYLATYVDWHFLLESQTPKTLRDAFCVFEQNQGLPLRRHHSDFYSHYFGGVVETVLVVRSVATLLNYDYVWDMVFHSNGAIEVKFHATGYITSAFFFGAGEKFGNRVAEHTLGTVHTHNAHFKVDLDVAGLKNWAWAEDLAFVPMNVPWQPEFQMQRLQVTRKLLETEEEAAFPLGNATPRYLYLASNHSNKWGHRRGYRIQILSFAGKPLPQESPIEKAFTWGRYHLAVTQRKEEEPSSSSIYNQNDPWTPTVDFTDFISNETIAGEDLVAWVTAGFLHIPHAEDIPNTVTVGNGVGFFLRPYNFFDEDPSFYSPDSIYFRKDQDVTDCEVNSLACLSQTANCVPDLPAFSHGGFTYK

Rattus norvegicus [3] = assay: Inhibition of VAP1 in streptozotocin-induced Wistar rat diabetic model using [14C]-benzylamine as substrate assessed as [14C]-benzylaldehyde formation in plasma at >/= 0.1 mg/kg, sc after 1 hr by liquid scintillation counting analysis; type: functional, organism-based; design: dose 0.1 mg/kg
Homo sapiens [4] = species on record: Homo sapiens; assay: Selectivity ratio of IC50 for human DAO to IC50 for human VAP1
Rattus norvegicus [5] = assay: Inhibition of VAP1-mediated ocular permeability in streptozotocin-induced Sprague-Dawley rat diabetic model assessed as fluorescein leakage in vitreous at 1 to 10 mg/kg, sc administered daily for 4 weeks post streptozotocin challenge measured 24 hrs post last dose by fluorescence assay; type: functional, organism-based
Plasma [6] = assay: Plasma concentration in Wistar rat at 0.1 mg/kg, sc after 0.5 to 6 hrs by LC-MS analysis; type: ADME, organism-based; design: dose 0.1 mg/kg, route subcutaneous; settings: in vivo
Homo sapiens [7] = species on record: Homo sapiens; assay: Selectivity ratio of IC50 for human MAOB to IC50 for human VAP1
[8] = Selectivity ratio of IC50 for human VAP1 to IC50 for rat VAP1
Plasma [9] = assay: Plasma concentration in sc dosed Wistar rat after 0.5 to 6 hrs by LC-MS analysis; type: ADME, organism-based; settings: in vivo
[10] = biological target: T3, Amine oxidase [flavin-containing] B (Homo sapiens, UniProt P27338); assay: Inhibition of human MAOB expressed in CHO cells using benzylamine as substrate after 1 hr by fluorometric assay; type: cell-based
T3 sequence (P27338 whole entry): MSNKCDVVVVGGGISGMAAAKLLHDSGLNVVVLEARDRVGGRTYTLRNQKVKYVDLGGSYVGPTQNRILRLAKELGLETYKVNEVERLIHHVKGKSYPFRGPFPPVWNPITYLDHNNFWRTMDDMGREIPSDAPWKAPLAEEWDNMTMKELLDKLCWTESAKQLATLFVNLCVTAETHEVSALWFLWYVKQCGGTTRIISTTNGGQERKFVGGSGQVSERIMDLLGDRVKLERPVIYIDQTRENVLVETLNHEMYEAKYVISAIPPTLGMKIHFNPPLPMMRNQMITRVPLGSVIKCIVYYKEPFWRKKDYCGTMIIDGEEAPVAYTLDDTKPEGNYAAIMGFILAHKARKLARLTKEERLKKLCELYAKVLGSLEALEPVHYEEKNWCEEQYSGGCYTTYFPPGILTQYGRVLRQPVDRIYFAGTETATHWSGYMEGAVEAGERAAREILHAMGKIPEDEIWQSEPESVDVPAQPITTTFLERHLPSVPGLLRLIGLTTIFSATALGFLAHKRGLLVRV

IC50 [1] | SMILES | also measured
1.1 µM | CC(=O)Nc1nc(CCc2ccc(N=C(N)NC(C)C)cc2)cs1 | –
18 µM | CC(=O)Nc1ccc(CCc2ccc(NC(=N)N)cc2)cc1 | –
1.1 µM | CSC(=N)Nc1ccc(CCc2csc(NC(C)=O)n2)cc1 | –
22 µM | N=C(N)Nc1ccc(CCc2csc(N)n2)cc1 | –
0.73 µM | CC(=O)Nc1nc(CCc2ccc(NC=N)cc2)cs1 | –
0.68 µM | CCNC(=N)Nc1ccc(CCc2csc(NC(C)=O)n2)cc1 | –
0.23 µM | CC(=O)Nc1nc(CCc2ccc(NC(=N)N)cc2)cs1 | IC50 [2]: 0.014 µM; inhibition (Rattus norvegicus [3]): Active; Ratio IC50 (Homo sapiens [4]): > 435; inhibition (Rattus norvegicus [5]): Active; Cp (Plasma [6]): 0.0218 µg/mL; Ratio IC50 (Homo sapiens [7]): > 435; Ratio IC50 [8]: 16; Cp (Plasma [9]): Dose-dependent effect; IC50 [10]: > 100 µM
> 100 µM | CC(=O)Nc1nc(CCc2ccc(NC(=N)N(C)C)cc2)cs1 | –
0.52 µM | CC(C)C(=O)Nc1nc(CCc2ccc(NC(=N)N)cc2)cs1 | –
15 µM | CC(=O)Nc1cccc(CCc2ccc(NC(=N)N)cc2)c1 | –
42 µM | CC(=O)Nc1nc(Cc2ccc(NC(=N)N)cc2)cs1 | –
9.6 µM | CC(=O)Nc1ncc(CCc2ccc(NC(=N)N)cc2)s1 | –
8.8 µM | CC(=O)Nc1nc(CCCc2ccc(NC(=N)N)cc2)cs1 | –
11 µM | N=C(N)Nc1ccc(CCc2csc(NC(=O)c3ccccc3)n2)cc1 | –
> 10 µM | CC(=O)Nc1nc(CCc2ccc(NC(N)=S)cc2)cs1 | –
3 µM | CC(=O)Nc1nc(CCc2ccc(NC3=NCCN3)cc2)cs1 | –
3.5 µM | CC(=O)Nc1nc(CCc2ccc(NC3=NCCS3)cc2)cs1 | –
0.33 µM | CC(=O)Nc1nc(-c2ccc(CCNC(=N)N)cc2)cs1 | –
> 100 µM | CC(=O)Nc1nc(CCc2ccc(N)cc2)cs1 | –

SMILES | IC50 [1] | also measured
CC(=O)Nc1nc(CCc2ccc(CCN)cc2)cs1 | 5 µM | –
